Row | melting point [°C] | SMILES
1 | 113 to 115 | CCCCn1nc(C(OC)OC)nc1Cc1ccc(-c2ccccc2-c2nnn[nH]2)nc1
2 | 129 to 130 | COc1ccc2ccccc2c1[N+](=O)[O-]
3 | 91 to 103 | CCOP(=O)(NCC(=O)OCc1ccccc1)C1CC(c2ccccc2)=NO1 (stereo not given)
4 | 167 to 168 | COc1cc(C(=O)N2Cc3ccc(C(=O)NCc4ccc5c(c4)OCO5)n3Cc3ccccc32)ccc1-c1ccccc1C
5 | 210 to 212 | Cc1cc(C(N)=O)ccc1O[C@@H]1CCNC[C@H]1O (relative stereo)
6 | 291 | O=P(O)(O)COc1ccc2c(c1)[nH]c1ccccc12
7 | 94 to 96 | O=C(O)CC/C=C\CC[C@@H]1[C@@H](OCc2ccc(-c3ccccc3)cc2)CO[C@@H]1c1cccnc1
8 | 220 to 225 | O=C(O)C=Cc1ccc(-c2ccc(-c3cccs3)s2)s1
9 | 152 to 154 | Cc1ccc(C2CC(n3ccnc3)c3ccccc3N2)cc1 (stereo not given)
10 | 156 to 158 | CC(C)CCS(=O)(=O)NC(=O)/C=C/c1cc(OCC2CC2)nn1Cc1ccc(C(F)(F)F)cc1Cl
11 | 184 to 186 | CCCCCN(C(=O)Nc1ccc(C(=O)O)cc1)c1ccc2c(c1)C(C)(C)CCC2(C)C
12 | 155 to 164 | Cc1cc(O)c2cccc(OCc3ccccc3)c2n1
13 | 94.7 | COc1ccc(C(F)(F)F)cc1NC(=O)CCl
14 | 217 to 219 | COc1cccc(-c2nc3c([nH]2)C(C)(C)CS(=O)(=O)CC3(C)C)c1
15 | 219 to 220 | Cc1cc2c(cc1Br)N(C1CC1)C=NS2(=O)=O
16 | 195 to 197 | CS(=O)(=O)c1ccc(/C(=C\C2CCCCC2)C(=O)O)cc1
17 | 102 | CC(C)C(c1ccc(N)cc1)c1cccnc1 (stereo not given)
18 | 147 to 150 | CC1(C)OC(=O)C(C(c2ccccc2)c2c[nH]c3ccccc23)C(=O)O1 (stereo not given)
19 | 153 to 155 | CCc1cc(C(=O)c2ccccc2Cl)c(-n2c(C)nnc2CNC(=O)Cc2ccccc2)s1
20 | 60 to 61 | CCOC(=O)NCCCCc1ccccc1
21 | 194 to 196 | COc1ccc(-c2c([N+](=O)[O-])c3ccc(OC)cc3c(=O)n2CC#N)cc1
22 | 120 to 128 | Cc1onc(NS(=O)(=O)c2cc(-c3ncccn3)ccc2-c2ccccc2CN(C)C(=O)CC(C)(C)C)c1C
23 | 131 to 132 | CC(C#CCOc1cccc(Oc2cccnc2)c1)N(O)C(N)=O (stereo not given)

Row | melting point [°C] | SMILES
24 | 205 to 206 | CC(C)OC(=O)N1c2ccccc2Sc2cc(O)c3ccccc3c21
25 | 113 to 115 | CC(C)(C)NC(=O)[C@@H]1CCCN1C(=O)[C@@H](O)[C@H](Cc1ccccc1)NC(=O)[C@H](CC(N)=O)NC(=O)OC(C)(C)C
26 | 157 to 158 | CCOC(CBr)(OCC)c1csc(NC(=N)N)n1
27 | 65.4 to 66.1 | CCOc1ccc(Br)c(F)c1Cl
28 | 156 | COC(=O)Cc1cccc(NC(=O)NCC(=O)N2[C@@H](C(=O)N3CCCC3)C[C@H](S(=O)(=O)c3ccccc3)[C@H]2c2ccccc2F)c1 (racemic)
29 | 92 to 94 | CN(C)CCCN1N=C2C(=Cc3ccccc3)CCCCC2C1c1ccccc1 (stereo not given)
30 | 191 to 192 | CC1CC(=O)NN=C1c1ccc(-n2ccc(C=O)c2)cc1 (stereo not given)
31 | 165 to 178 | Cc1ccc(S(=O)(=O)N2CC[C@@H](C(C#N)(c3ccccc3)c3ccccc3)C2)cc1
32 | 239 to 240 | CC(=O)O[C@H]1[C@H](NC(=N)Nc2ccccc2)c2cc(C#N)ccc2OC1(C)C (relative stereo)
33 | 225 to 226 | Cc1cccc(C(=O)c2[nH]c3ccc(Cl)cc3c2CC(=O)O)n1
34 | 298 to 301 | CCNC(=O)Nc1nc2cc(-c3cccnc3)cc(-c3nc(C)no3)n2n1
35 | 198 to 202 | Cc1ncncc1NC(=O)Nc1ccc(-n2nc(C(F)(F)F)cc2C2CC2)c(F)c1
36 | 173 to 174 | CC(C)(C)OC(=O)N1CCC2(CC1)C(=O)N(CC(=O)O)CN2C1CCCCC1
37 | 158 | COC1CN(CC2CCCO2)CCC1NC(=O)c1cc(Cl)c(N)c2c1OCCC2 (stereo not given)
38 | 106 to 108 | O=c1ccoc2c(CCCc3ccccc3)c(OCc3ccccc3)ccc12
39 | 185 | CC(=O)Nc1c(N)cc(Br)cc1OCc1ccccc1
40 | 197 to 199 | N#Cc1cc([N+](=O)[O-])c(N)cc1F
41 | 110 to 112 | CC(=O)NCSC[C@H](NC(=O)OC(C)(C)C)C(=O)O
42 | 124 to 125 | CC(C)c1cccc(C(C)C)c1NC(=O)N(Cc1ccc(N(C)C)cc1)c1ccc(F)cc1
43 | 285 to 288 | Nc1nc(-c2ccco2)c(N2CCOCC2)s1
44 | 131 to 135 | COc1ccc(C(=O)Nc2ccc(F)cc2)cc1NS(=O)(=O)c1ccc(C#N)cc1
45 | 278 to 281 | O=C(O)c1ccc2c(c1)S(=O)c1ccc([N+](=O)[O-])cc1C=C2 (stereo not given)
46 | > 200 | Oc1ccc(-c2nn(-c3cccc(F)c3)c3cc(O)ccc23)c(O)c1

Row | melting point [°C] | SMILES
47 | 116 to 118 | Nc1ccc(Cl)cc1C(=O)NCCCn1cncn1
48 | 238 to 244 | CC1COc2c(N3CCNC(c4ccccc4)C3)c(F)cc3c(=O)c(C(=O)O)cn1c23 (stereo not given)
49 | 52 to 57 | Oc1ccc(C2CCC(NCC(O)Cc3ccccc3)CC2)cc1 (racemic)
50 | 160 to 162 | O=Cc1ccc2c3ccccc3c3ccccc3c2c1
51 | 245 to 248 | Cc1cc2c(cc1Cl)C(NCCC1CCN(C(=O)OC(C)(C)C)CC1)(c1ccccc1Cl)C(=O)N2 (stereo not given)
52 | 53 to 60 | CC(C)NCC(O)COc1cccc(-c2oc3ccccc3c2C(=O)c2ccc(Cl)cc2)c1 (stereo not given)
53 | 65.5 to 67.5 | CN(C)CCCOC(=O)c1cccc2c(-c3ccccc3)c([N+](=O)[O-])oc12
54 | 194 to 195 | CCCCOc1ncc(C(C)=O)cc1-c1nc2c(CC)n(C3CCN(C(=O)OC(C)(C)C)CC3)nc2c(=O)[nH]1
55 | 197 to 199 | CN(CCO)Cc1ccc(-c2ccc3c(Nc4ccc(Sc5nccn5C)c(Cl)c4)c(C#N)cnc3c2)nc1
56 | 167 | Oc1ccc2c(c1)CCCC(c1ccccc1)=C2c1ccc(OCCCCSCCCC(F)(F)C(F)(F)F)cc1
57 | 240 to 242 | CC(CC#N)n1nnc2cc3c(=O)n(C4CC4)nnc3cc2c1=O (stereo not given)
58 | 213 to 215 | CC1(C)CCC(C)(C)c2cc3cc(-c4ccc(C(=O)O)c(Cl)c4)ccc3cc21
59 | 183 to 184 | O=C1C(=O)c2ccccc2C2=C1SCC1(CCN(CC(O)COc3ccc4cc(Br)ccc4c3)CC1)O2 (stereo not given)
60 | 198 to 201 | CC1CN(c2cc3c(cc2F)c(=O)c(C(=O)O)c2n3C(C)S2)CCN1C (stereo not given)
61 | 129 | COC(=O)NNC(=O)CCCl
62 | 101 to 106 | CC1c2cccc3c2N(CC3)c2ccccc2N1C(=O)CN(C)Cc1ccccc1 (stereo not given)
63 | 176 to 178 | CC1=C(c2ccc(C(=O)O)cc2)CCCC1
64 | 124 to 126 | CN(C)S(=O)(=O)CC(CS(=O)(=O)c1ccc(Oc2ccc(OC(F)(F)F)cc2)cc1)N(O)C=O (stereo not given)
65 | 162 to 164 | CCOC(=O)c1ccc(OCCOc2ccc(-c3onc(SC)c3C#N)cc2)cc1
66 | 178 to 183 | CCC(=O)NNC(=O)NCCOc1ccccc1
67 | 131 to 133 | CCCCc1nc2cccc(C(=O)OC)c2n1Cc1ccc(-c2ncncc2C#N)cc1
68 | 306 | CS(=O)(=O)c1cc(CCC(=O)O)cc(-c2nc(=O)c3ccccc3s2)n1
69 | 72 to 75 | CC(C#N)CC(=O)c1cccc(Cl)c1 (stereo not given)

Row | melting point [°C] | SMILES
70 | 98 to 101 | O=C1OC(COc2ccccc2)CN1Sc1ccc(Cl)cc1 (stereo not given)
71 | 160 to 164 | COC(=O)C[C@@H]1C[C@@H](COc2ccc(-c3ccc(C(=N)NC(=O)OCc4ccccc4)cc3)cc2)NC1=O
72 | 163 to 165 | CNC(=O)c1cnn(-c2cccc(Cl)c2)c1Cl
73 | 228 to 229 | COc1ccc2c(CCC(=O)O)nnc(-c3nccs3)c2c1
74 | 162 | C(=C\c1ccc2c(c1)COC(N[C@@H]1CCc3ccccc31)=N2)/c1ccccc1
75 | 161 to 165 | COc1ccc(Nc2cncc(-c3cccc(Nc4ccccn4)c3)c2)cc1
76 | 184 to 186 | CCc1nc(OC)c(NC(=O)N2CCN(c3cc(F)cc(F)c3)CC2)cc1C(=O)Nc1cc(CO)cc(Nc2c3ccccc3nc3ccccc23)c1
77 | 167 to 168 | Cc1n[nH]c2c1C(=O)CC(c1cc(Cl)sc1Cl)C2 (stereo not given)
78 | 250 to 251 | CCn1c(=O)c2c(nc(/C=C/c3ccc(OS(=O)(=O)C(F)(F)F)c(OC)c3)n2C)n(CC)c1=O
79 | 250 to 253 | CC1(C)Oc2cc3nonc3cc2C(N2CCC(Br)CC2=O)C1O (stereo not given)
80 | 139 to 141 | COc1cc(=O)c(-c2ccnn2-c2ccccc2)nn1-c1cccc(C(F)(F)F)c1
81 | 194 to 198 | CC(C)(C)n1ncc(N)c(Cl)c1=O
82 | 161 to 162 | COC(=O)C1=CC=C(/C=C/c2ccc(OC)cc2)C2=CC(C(C)C)=CC=C(C)C2=C1C(=O)OC
83 | 225 to 228 | O=P(c1ccccc1)(c1ccccc1)c1nnc(P(=O)(c2ccccc2)c2ccccc2)c2ccccc12
84 | 153 to 154 | Cn1cc(Br)cc(Nc2ccccn2)c1=O
85 | 188 to 191 | Oc1ccccc1-c1cc(Oc2ccc3cccnc3c2)ncn1
86 | 85 to 86 | COc1ccnc(N2CCN(C(=O)c3ccco3)CC2)n1
87 | 142 | Cc1cc(S(C)(=O)=O)ccc1C(=O)c1c(S(C)=O)noc1C1CC1 (stereo not given)
88 | 59 | CCCCCCCCCCCCCCCCCCN(C)CC(O)CO (stereo not given)
89 | 289 to 290 | Cc1ccc(-c2csc(-c3ccc(C(=O)O)cc3)n2)cc1

Row | SMILES | melting point [°C]
90 | N#Cc1ccc(N2C(=O)[C@@H]3[C@H](O)CCN3C2=O)c2c1OCCO2 | 196 to 197
91 | CC(=O)NC(NC(=O)c1ccccc1C(=O)O)C(=O)NCc1ccccc1 (stereo not given) | 186 to 188
92 | CCC(=O)Nc1cccc(-c2ccnc3c(C(=O)c4ccco4)cnn23)c1 | 185 to 186
93 | Cc1nnc(CN2C(=O)c3ccccc3C2=O)n1-c1ccc(Cl)cc1C(=O)c1ccccc1Cl | 262 to 265
94 | CCC(CC)(CCC#N)C(NC(=O)c1ccc(Cl)cc1)NC(=N[N+](=O)[O-])Nc1cccnc1 (stereo not given) | 100 to 110
95 | CC(C)(C)CCCOC1CCC2C3C(=O)C=C4CC(O[Si](C)(C)C(C)(C)C)CCC4(C)C3CCC12C (stereo not given) | 155 to 156

Reference: a melting point compilation (Tetko et al.; mined from patent text by program, amines drawn as free bases though some values may be those of a salt)
